Assay results published in patent US8012499B2, “Anthranilamides for controlling invertebrate pests” (E.I. du Pont de Nemours and Company, priority 2005, dated 2011).

`CCN(CC)C(=O)C(=O)c1cc(C)cc(C)c1NC(=O)c1cc(C(F)(F)F)nn1-c1ncccc1Cl` [Example 2, 1-(3-chloro-2-pyridinyl)-N-[2-[(diethylamino)oxoacetyl]-4,6-dimethylphenyl]-3-(trifluoromethyl)-1H-pyrazole-5-carboxamide] gave a melting point of 223 to 227 °C.
For `C/N=C(/C(=O)NC)c1cc(Cl)cc(C)c1NC(=O)c1cc(Br)nn1-c1ncccc1Cl` [Example 6, 3-bromo-N-[4-chloro-2-methyl-6-[(1E)-2-(methylamino)-1-(methylimino)-2-oxoethyl]phenyl]-1-(3-chloro-2-pyridinyl)-1H-pyrazole-5-carboxamide], the melting point was 234 °C (dec.).
In the case of `CNC(=O)C(=O)c1cc(Cl)cc(C)c1NC(=O)c1cc(Br)nn1-c1ncccc1Cl` [Example 7, 3-bromo-N-[4-chloro-2-methyl-6-[(methylamino)oxoacetyl]phenyl]-1-(3-chloro-2-pyridinyl)-1H-pyrazole-5-carboxamide], the melting point is reported as 247 °C.
